This note sets out measurements from EPA's ToxValDB 9.5 (doi:10.2903/j.efsa.2013.3181).

Series [1] has as its system Lepomis macrochirus. The following applies: acute; duration: 96 hours; mortality.
The subject of series [2] is Apis mellifera. The following applies: acute; duration: 48 hours; oral; unspecified; mortality.
In series [3] the test system is Tagia sp.
In series [4] the test system is Mus musculus. The conditions noted are these: acute; oral; F; mortality.
The test system of series [5] is Anas platyrhynchos. The following applies: reproductive.
Series [6] deals with Bibionidae. The conditions noted are these: chronic/long-term; duration: 28 days; no effects.
In series [7] the test system is Daphnia magna. The following applies: chronic/long-term; duration: 21 days; reproduction.
Series [8] relates to Pimephales promelas. The conditions noted are these: chronic/long-term; duration: 28 days; body weight.
The test system of series [9] is Colinus virginianus. The following applies: for LD50: acute, oral, mortality.
Series [10] has as its system Rattus norvegicus.
Series [11] relates to Canidae. The conditions noted are these: chronic; duration: 1 years; oral; Dog Other; clinical signs.
In series [12] the test system is Typhlodromus pyri. The series can be described thus: LR50; higher = less toxic. The following applies: chronic/long-term; duration: 7 days; mortality.
In series [13] the test system is Aphidius rhopalosiphi. Put plainly: LR50; higher = less toxic. The following applies: acute; duration: 48 hours; mortality.

Values after ≈ are worked out from the molar mass of the structure shown.

For orientation: NOAEL means the highest tested level that showed no adverse finding.

Take `CC(C)C1CCC(Cc2ccc(Cl)cc2)C1(O)Cn1cncn1` (stereo not drawn) [Ipconazole]: the LC50 came to 1.3 µg/mL (≈ 3.89 µM) in [1] and 597 mg/kg in series [3] (acute, duration: 14 days, mortality). The LD50 in series [2] is more than 100 µg/piece; in [4], 468 mg/kg; in series [9] (diet), more than 300 mg/kg-day; in series [9], 962 mg/kg; in series [10] (acute, oral, F, mortality) it was more than 2000 mg/kg. Besides, the NOEC turned out to be 0.78 mg/kg in series [3] (chronic/long-term, duration: 8 weeks, reproduction); 3.52 mg/L in [6]; 10.9 µg/L in series [7]; 0.44 µg/L in series [8]. Also, the figures for the NOEL in series [5] and in series [9] (reproduction developmental) were 27.1 mg/kg-day and 4.3 mg/kg-day, respectively. The no observed adverse effect level (NOAEL) in [10] (developmental, development) worked out at 3 mg/kg-day; in [10] (reproduction developmental, body weight), 8 mg/kg-day; in series [11], 1.5 mg/kg-day. The LR50 is 17.4 g/ha in series [12] and 35.1 g/ha in [13].
